The text below walks through data of PubChem BioAssay AID330 (DTP/NCI, 2004).

The assay relates to P388 leukemia ip, CD2F1 mice, survival T/C. The experiment in a line: NCI In Vivo Anticancer Drug Screen. Data for tumor model P388 Leukemia (intraperitoneal) in CD2F1 (CDF1) mice. Conditions: endpoint: median survival time, higher = longer survival. In outline: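 Mice carrying the transplanted tumor received test compound or vehicle. Survival was recorded in each group, and the value is the treated-group measurement divided by that of the vehicle-treated control group.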

The mark [1] stands for this setting: dose: 50.0 mg/kg/injection, schedule: Q01DX009 (ip), vehicle: Klucel (hydroxypropylcellulose) (HPC).
The mark [2] stands for this setting: dose: 100.0 mg/kg/injection, schedule: Q01DX009 (ip), vehicle: Klucel (hydroxypropylcellulose) (HPC).
The mark [3] stands for this setting: dose: 200.0 mg/kg/injection, schedule: Q01DX009 (ip), vehicle: Klucel (hydroxypropylcellulose) (HPC).
Where [4] appears, read: dose: 100.0 mg/kg/injection, schedule: Q01DX001 (ip), vehicle: saline with Tween-80.
Setting [5] is: dose: 200.0 mg/kg/injection, schedule: Q01DX001 (ip), vehicle: saline with Tween-80.
Setting [6] is: dose: 400.0 mg/kg/injection, schedule: Q01DX001 (ip), vehicle: saline with Tween-80.
[7] abbreviates: dose: 50.0 mg/kg/injection, schedule: Q01DX005 (ip), vehicle: saline with Tween-80.
Setting [8] is: dose: 100.0 mg/kg/injection, schedule: Q01DX005 (ip), vehicle: saline with Tween-80.

SMILES strings stand for the structures. “And” between values parts separate entries of the source, which are not always exact repeats. Equal values may be shown once. Inconclusive results and toxic doses are left out.

`NNc1ncnc2ccc(Cl)cc12`: the T/C under setting [1] was 111 % of control, the T/C under setting [2] is 111 % of control and the T/C under setting [3] is 113 % of control.
In the case of `OCC1OC(n2cnc3c2NC=NC[C@H]3O)CC1O` (stereo partly drawn), the T/C is 100 % of control (dose: 0.05 mg/kg/injection, schedule: Q03HX024 (ip), vehicle: clinical formulation); 99 % of control (dose: 0.05 mg/kg/injection, schedule: Q03HX024 (ip), vehicle: water); 100 % of control (dose: 0.1 mg/kg/injection, schedule: Q03HX024 (ip), vehicle: clinical formulation); 100 % of control (dose: 0.1 mg/kg/injection, schedule: Q03HX024 (ip), vehicle: water); 111 % of control (dose: 0.12 mg/kg/injection, schedule: Q01DX009 (ip), vehicle: water); 112 % of control (dose: 0.13 mg/kg/injection, schedule: Q01DX009 (ip), vehicle: saline). Further, the T/C is 100 % of control (dose: 0.2 mg/kg/injection, schedule: Q03HX024 (ip), vehicle: clinical formulation); 100 % of control (dose: 0.2 mg/kg/injection, schedule: Q03HX024 (ip), vehicle: water); 101 % of control and 102 % of control (dose: 0.25 mg/kg/injection, schedule: Q01DX005 (ip), vehicle: water); 100 % of control and 119 % of control (dose: 0.25 mg/kg/injection, schedule: Q01DX009 (ip), vehicle: saline); 103 % of control and 111 % of control (dose: 0.25 mg/kg/injection, schedule: Q01DX009 (ip), vehicle: water); 99 % of control and 112 % of control (dose: 0.25 mg/kg/injection, schedule: Q04DX002 (ip), vehicle: saline). Further, the T/C reads like this: (dose: 0.25 mg/kg/injection, schedule: Q04DX003 (ip), vehicle: saline) 101 % of control; (dose: 0.38 mg/kg/injection, schedule: Q01DX009 (ip), vehicle: saline) 107 % of control; (dose: 0.5 mg/kg/injection, schedule: Q01DX005 (ip), vehicle: water) 99 % of control and 101 % of control; (dose: 0.5 mg/kg/injection, schedule: Q01DX009 (ip), vehicle: saline) 109 % of control and 110 % of control; (dose: 0.5 mg/kg/injection, schedule: Q01DX009 (ip), vehicle: water) 99 % of control and 118 % of control; (dose: 0.5 mg/kg/injection, schedule: Q04DX002 (ip), vehicle: saline) 106 % of control and 109 % of control. Moreover, the T/C by setting is: (dose: 0.5 mg/kg/injection, schedule: Q04DX003 (ip), vehicle: saline) 101 % of control; (dose: 0.66 mg/kg/injection, schedule: Q01DX009 (ip), vehicle: saline) 92 % of control; (dose: 0.75 mg/kg/injection, schedule: Q01DX009 (ip), vehicle: saline) 104 % of control; (dose: 1.0 mg/kg/injection, schedule: Q01DX005 (ip), vehicle: water) 102 % of control; (dose: 1.0 mg/kg/injection, schedule: Q01DX009 (ip), vehicle: saline) 107 % of control and 94 % of control; (dose: 1.0 mg/kg/injection, schedule: Q01DX009 (ip), vehicle: water) 101 % of control. Besides, the T/C (dose: 1.5 mg/kg/injection, schedule: Q01DX009 (ip), vehicle: saline) is 103 % of control; the T/C (dose: 2.0 mg/kg/injection, schedule: Q01DX005 (ip), vehicle: water) was 102 % of control; the T/C (dose: 2.0 mg/kg/injection, schedule: Q01DX009 (ip), vehicle: saline) was 102 % of control; the T/C (dose: 2.0 mg/kg/injection, schedule: Q01DX009 (ip), vehicle: water) was 86 % of control; the T/C (dose: 3.0 mg/kg/injection, schedule: Q01DX009 (ip), vehicle: saline) was 107 % of control; the T/C (dose: 4.0 mg/kg/injection, schedule: Q01DX005 (ip), vehicle: water) is 104 % of control. Further, the T/C (dose: 4.0 mg/kg/injection, schedule: Q01DX009 (ip), vehicle: water) is 86 % of control.
Take `CCOC(=O)c1cn(C)c2c1C(=O)C(C(=O)OCC)CC(=O)N2` (stereo not drawn): the T/C was 94 % of control (dose: 50.0 mg/kg/injection, schedule: Q01DX005 (ip), vehicle: saline + Tween-80 + alcohol); 99 % of control (dose: 100.0 mg/kg/injection, schedule: Q01DX005 (ip), vehicle: saline + Tween-80 + alcohol); 101 % of control (dose: 200.0 mg/kg/injection, schedule: Q01DX005 (ip), vehicle: saline + Tween-80 + alcohol).
Take `COC1CCC2(C)C(=CCC3C2CCC2(C)C(OCCOS(=O)(=O)c4ccc(C)cc4)CCC32)C1` (stereo not drawn): the T/C is 101 % of control under setting [4], 106 % of control under setting [5] and 100 % of control under setting [6].
Consider `COC(=O)/C(=C\C=C\c1ccccc1)NC(=O)c1ccccc1`, for which the T/C under setting [4] was 100 % of control, the T/C under setting [5] was 96 % of control and the T/C under setting [6] is 89 % of control.
In the case of `CN1CC[C@H]([C@@H](O)c2ccccc2)C1=O`, the T/C is 102 % of control (dose: 50.0 mg/kg/injection, schedule: Q01DX005 (ip), vehicle: saline); 102 % of control (dose: 100.0 mg/kg/injection, schedule: Q01DX005 (ip), vehicle: saline); 107 % of control (dose: 200.0 mg/kg/injection, schedule: Q01DX005 (ip), vehicle: saline).
With `O=C1CC2(C(=O)N1CN1CCCCC1)c1ccccc1-c1ccccc12`, the T/C is, setting by setting: under setting [1], 104 % of control and 106 % of control; under setting [2], 102 % of control and 115 % of control; under setting [3], 156 % of control.
Turning to `C/C(=N\NC(=S)N(C)C)c1ncc[nH]1`, the T/C was 121 % of control under setting [7] and 119 % of control under setting [8].
On to `COc1cc(NC(C)CCCN)c2nc(C)ccc2c1Oc1ccc(F)cc1` (stereo not drawn), for which the T/C was 109 % of control (dose: 12.5 mg/kg/injection, schedule: Q01DX009 (ip), vehicle: water) and 92 % of control (dose: 25.0 mg/kg/injection, schedule: Q01DX009 (ip), vehicle: water).
Turning to `N#CCc1c(C2(c3ccncc3)OCCO2)[nH]c2ccccc12`, the T/C by setting is: (dose: 100.0 mg/kg/injection, schedule: Q01DX001 (ip), vehicle: saline) 104 % of control; (dose: 200.0 mg/kg/injection, schedule: Q01DX001 (ip), vehicle: saline) 113 % of control; (dose: 400.0 mg/kg/injection, schedule: Q01DX001 (ip), vehicle: saline) 98 % of control.
`O=C(CCN1CC1)Nc1cccc(NC(=O)CCN2CC2)c1`: the T/C reads like this: (dose: 1.8 mg/kg/injection, schedule: Q01DX009 (ip), vehicle: Klucel (hydroxypropylcellulose) (HPC)) 176 % of control; (dose: 2.5 mg/kg/injection, schedule: Q01DX009 (ip), vehicle: Klucel (hydroxypropylcellulose) (HPC)) 158 % of control and 169 % of control and 185 % of control; (dose: 3.0 mg/kg/injection, schedule: Q01DX009 (ip), vehicle: Klucel (hydroxypropylcellulose) (HPC)) 174 % of control; (dose: 5.0 mg/kg/injection, schedule: Q01DX009 (ip), vehicle: Klucel (hydroxypropylcellulose) (HPC)) 167 % of control and 191 % of control and 209 % of control; (dose: 6.0 mg/kg/injection, schedule: Q01DX009 (ip), vehicle: Klucel (hydroxypropylcellulose) (HPC)) 186 % of control; (dose: 15.0 mg/kg/injection, schedule: Q01DX009 (ip), vehicle: Klucel (hydroxypropylcellulose) (HPC)) 88 % of control. The T/C (dose: 20.0 mg/kg/injection, schedule: Q01DX009 (ip), vehicle: Klucel (hydroxypropylcellulose) (HPC)) was 116 % of control.
Turning to `CN(Cc1ccc2nc(N)[nH]c(=O)c2c1)c1ccc(C(=O)NC(CCC(=O)O)C(=O)O)cc1` (stereo not drawn), the T/C under setting [7] was 95 % of control and the T/C under setting [8] is 102 % of control.
Consider `O=C(CI)Nc1cccc(C(=O)O)c1O`, for which the T/C (dose: 12.5 mg/kg/injection, schedule: Q01DX009 (ip), vehicle: Klucel (hydroxypropylcellulose) (HPC)) was 101 % of control; the T/C (dose: 25.0 mg/kg/injection, schedule: Q01DX009 (ip), vehicle: Klucel (hydroxypropylcellulose) (HPC)) is 113 % of control; the T/C under setting [1] was 99 % of control.
Regarding `Clc1ccc2c(cnc3ccccc32)n1`, the T/C was 102 % of control (dose: 12.5 mg/kg/injection, schedule: Q04DX002 (ip), vehicle: saline with Tween-80); 102 % of control (dose: 25.0 mg/kg/injection, schedule: Q04DX002 (ip), vehicle: saline with Tween-80); 101 % of control (dose: 50.0 mg/kg/injection, schedule: Q04DX002 (ip), vehicle: saline with Tween-80).
Turning to `COc1cc(C(c2cc3c(cc2O)OCO3)N2CCOCC2)ccc1O` (stereo not drawn), the T/C was 116 % of control (dose: 60.0 mg/kg/injection, schedule: Q01DX005 (ip), vehicle: saline with Tween-80) and 106 % of control (dose: 120.0 mg/kg/injection, schedule: Q01DX005 (ip), vehicle: saline with Tween-80).
